From patent publication US9096597B2 (priority 2007, dated 2015)
Where a name gives a salt, the structure may show the parent alone. Read-outs that look alike come from different tables or passages of the source.

Key:
Junín pseudotyped virus = assay: organism not typed; format: cell-based; conditions: read-out: Activity (EC50 in μM vs. pseudotyped virus) Junín
[1] = system: Machupo pseudotyped virus; assay: organism not typed; format: cell-based; conditions: read-out: Activity (EC50 in μM vs. pseudotyped virus) Machupo
[2] = system: Lassa GP-pseudotyped-virus; assay: microbe, parasite or virus in culture; format: cell-based, Lassa fever virus
Sabiá pseudotyped virus = assay: organism not typed; format: cell-based; conditions: read-out: Activity (EC50 in μM vs. pseudotyped virus) Sabiá
[3] = system: Guanarito pseudotyped virus; assay: organism not typed; format: cell-based; conditions: read-out: Activity (EC50 in μM vs. pseudotyped virus) Guanarito
VSVg pseudotyped virus = assay: microbe, parasite or virus in culture; format: cell-based, vesicular stomatitis virus (VSV); conditions: Vesicular stomatitis virus, read-out: Activity (EC50 in μM vs. pseudotyped virus) VSVg
[4] = Human immunodeficiency virus 1, read-out: Activity (EC50 in μM vs. pseudotyped virus) Lassa

SMILES	EC50 (Junín pseudotyped virus)	EC50 [1]	potency against viral entry mediated by the Lassa envelope glycoprotein [2]	EC50 ([2]; Human immunodeficiency virus 1, HEK-293T, read-out: EC50 against Lassa GP-pseudotyped-virus)	EC50 [2, 4]	EC50 (Sabiá pseudotyped virus)	EC50 [3]	EC50 (VSVg pseudotyped virus)
CCOc1ccc(-n2cnc3cc(NCc4ccc(CC)cc4)cnc32)cc1 [Compound 1, [3-(4-Ethoxy-phenyl)-3H-imidazo[4,5-b]pyridin-6-yl]-(4-ethyl-benzyl)-amine]	< 0.05 µM	< 0.05 µM	significantly increased potency	0.00013 µM	< 0.05 µM	< 0.05 µM	< 0.05 µM	1 to 50 µM
CCOc1ccc(-n2cnc3cc(NCc4ccc(CC)cc4)cnc32)cn1 [Compound 2, [3-(6-Ethoxy-pyridin-3-yl)-3H-imidazo[4,5-b]pyridin-6-yl]-(4-ethyl-benzyl)-amine]					< 0.05 µM			1 to 50 µM
CCOc1ccc(-n2cnc3cc(NCc4ccc(C)cn4)cnc32)cc1 [Compound 3, [3-(4-Ethoxy-phenyl)-3H-imidazo[4,5-b]pyridin-6-yl]-(5-methyl-pyridin-2-ylmethyl)-amine]					0.05 to 1 µM			> 50 µM
CCOc1ccc(-n2cnc3nc(NCc4ccc(CC)cc4)ccc32)cc1 [Compound 4, [1-(4-Ethoxy-phenyl)-1H-imidazo[4,5-b]pyridin-5-yl]-(4-ethyl-benzyl)-amine]		0.05 to 1 µM			< 0.05 µM	0.05 to 1 µM		> 50 µM
CCOc1ccc(-n2cnc3cc(N(Cc4ccc(CC)cc4)C(C)=O)cnc32)cc1 [Compound 6, N-[3-(4-Ethoxy-phenyl)-3H-imidazo[4,5-b]pyridin-6-yl]-N-(4-ethyl-benzyl)-acetamide]		1 to 50 µM			0.05 to 1 µM			
CCOc1ccc(-n2cnc3cc(N(Cc4ccc(CC)cc4)C(=O)c4ccccc4)cnc32)cc1 [Compound 7, N-[3-(4-Ethoxy-phenyl)-3H-imidazo[4,5-b]pyridin-6-yl]-N-(4-ethyl-benzyl)-benzamide]		0.05 to 1 µM			0.05 to 1 µM			
CCOc1ccc(-n2cnc3cc(N(Cc4ccc(CC)cc4)C(=O)CN(C)C)cnc32)cc1 [Compound 8, 2-Dimethylamino-N-[3-(4-ethoxy-phenyl)-3H-imidazo[4,5-b]pyridin-6-yl]-N-(4-ethyl-benzyl)-acetamide hydrochloride]		0.05 to 1 µM			0.05 to 1 µM			
CCOc1ccc(-n2cnc3cc(N(Cc4ccc(CC)cc4)C(=O)CCC(=O)O)cnc32)cc1 [Compound 9, N-[3-(4-Ethoxy-phenyl)-3H-imidazo[4,5-b]pyridin-6-yl]-N-(4-ethyl-benzyl)-succinamic acid]		1 to 50 µM			1 to 50 µM			
CCOc1ccc(-n2cnc3cc(N(Cc4ccc(CC)cc4)S(C)(=O)=O)cnc32)cc1 [Compound 10, N-[3-(4-Ethoxy-phenyl)-3H-imidazo[4,5-b]pyridin-6-yl]-N-(4-ethyl-benzyl)-methanesulfonamide]		1 to 50 µM			1 to 50 µM			
CCOc1ccc(-n2cnc3cc(N(Cc4ccc(CC)cc4)S(=O)(=O)c4ccccc4)cnc32)cc1 [Compound 11, N-[3-(4-Ethoxy-phenyl)-3H-imidazo[4,5-b]pyridin-6-yl]-N-(4-ethyl-benzyl)-benzenesulfonamide]		0.05 to 1 µM			0.05 to 1 µM			
CCOc1ccc(-n2nnc3cc(NCc4ccc(CC)cc4)cnc32)cc1 [Compound 12, [3-(4-Ethoxy-phenyl)-3H-[1,2,3]triazolo[4,5-b]pyridin-6-yl]-(4-ethyl-benzyl)-amine]		0.05 to 1 µM			< 0.05 µM	0.05 to 1 µM		> 50 µM
